# pIC50: −log10 of the molar value.
# System: THP1 cells (LPS induced TNF release)
# Experiment: Lipopolysaccharide-Activated THP1 Cell TNF Production Assay
# Type: cell-based
# Settings: Homo sapiens, THP-1, 3 h, read-out: IC50 values in the THP1 cell assay (LPS induced TNF release)
# Method in brief: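 THP1 cells at 1E6/mL were treated with 3-fold serial compound dilutions and LPS (1 μg/mL stock) for 3 h at 37 °C. Secreted TNF-α was quantified by electrochemiluminescent sandwich immunoassay. Percent of DMSO control versus concentration was fitted to a 4-parameter equation.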
row,Structure (SMILES),pIC50
1,"Cc1nccn1-c1cccc(C[C@H](C)Nc2nccc(N(C)c3ccnc(-c4ccccc4)n3)n2)c1 [Example 117, N^4-Methyl-N^2-((S)-1-(3-(2-methyl-1H-imidazol-1-yl)phenyl)propan-2-yl)-N^4-(2-phenylpyrimidin-4-yl)pyrimidine-2,4-diamine]",≥ 4.70

# Same assay, conditions: Homo sapiens, THP-1; THP1 cells, bacterial LPS, secreted TNF-α after 3 h at 37° C.; read-out: IC50 values in the THP1 cell assay (LPS induced TNF release)
row,pIC50,Structure (SMILES)
1,≥ 4.70,"CN(c1ccnc(NCCc2ccccc2)n1)c1ccnc(-c2ccccc2)n1 [Example 106, N^4-Methyl-N^2-phenethyl-N^4-(2-phenylpyrimidin-4-yl)pyrimidine-2,4-diamine]"
2,≥ 4.70,"Cc1ccc(-c2cccc(N(C)c3ccnc(NCCc4ccccc4)n3)n2)cc1 [Example 137, N^4-Methyl-N^2-phenethyl-N^4-(6-p-tolylpyridin-2-yl)-pyrimidine-2,4-diamine]"
3,≥ 4.70,"C[C@@H](Cc1cccc(CN)c1)Nc1nccc(N(C)c2ccnc(-c3cccc(F)c3)n2)n1 [Example 85, N^2-((S)-1-(3-(Aminomethyl)phenyl)propan-2-yl)-N^4-(2-(3-fluorophenyl)pyrimidin-4-yl)-N^4-methylpyrimidine-2,4-diamine]"
4,≥ 4.70,"CN(c1cccc(-c2ccoc2)n1)c1ccnc(NCCc2ccccc2)n1 [Example 146, N^4-(6-(Furan-3-yl)pyridin-2-yl)-N^4-methyl-N^2-phenethylpyrimidine-2,4-diamine]"
5,≥ 4.70,"CN(c1cccc(-c2cccc(C(F)(F)F)c2)n1)c1ccnc(NCCc2ccccc2)n1 [Example 129, N^4-Methyl-N^2-phenethyl-N^4-(6-(3-(trifluoromethyl)phenyl)pyridin-2-yl)-pyrimidine-2,4-diamine]"
6,≥ 4.70,"COc1ccccc1-c1nccc(N(C)c2ccnc(NCCc3cccnc3)n2)n1 [Example 104, N^4-(2-(2-Methoxyphenyl)pyrimidin-4-yl)-N^4-methyl-N^2-(2-(pyridin-3-yl)ethyl)-pyrimidine-2,4-diamine]"
7,≥ 4.70,"CN(c1cccc(-c2cccc(F)c2F)n1)c1ccnc(NCCc2ccccc2)n1 [Example 145, N^4-(6-(2,3-Difluorophenyl)pyridin-2-yl)-N^4-methyl-N^2-phenethylpyrimidine-2,4-diamine]"
8,≥ 4.70,"CN(c1cc(-c2ccccc2)c(=O)n(C)c1)c1ccnc(NC2CCN(C(=O)OC(C)(C)C)CC2)n1 [Example 173, tert-Butyl 4-(4-(Methyl(1-methyl-6-oxo-5-phenyl-1,6-dihydropyridin-3-yl)amino)pyrimidin-2-ylamino)piperidine-1-carboxylate]"
9,≥ 4.70,"CN(c1ccnc(NCCc2ccccc2)n1)c1nccc(C(C)(C)C)n1 [Example 186, N^4-(4-tert-Butylpyrimidin-2-yl)-N^4-methyl-N^2-phenethylpyrimidine-2,4-diamine]"
10,≥ 4.70,"CN(c1cccc(Cc2ccccc2)n1)c1ccnc(NCCc2ccccc2)n1 [Example 151, N^4-(6-Benzylpyridin-2-yl)-N^4-methyl-N^2-phenethylpyrimidine-2,4-diamine]"
11,≥ 4.70,"CC(=O)N1CCC(CNc2nccc(N(C)c3ccnc(-c4ccccc4)n3)n2)CC1 [Example 115, 1-(4-((4-(Methyl(2-phenylpyrimidin-4-yl)amino)pyrimidin-2-ylamino)methyl)-piperidin-1-yl)ethanone]"
12,≥ 4.70,"CC(Cc1cccc(CO)c1)Nc1nccc(N(C)c2cccc(-c3cccc(F)c3)n2)n1 (stereo not drawn) [Example 156, (3-(2-(4-((6-(3-Fluorophenyl)pyridin-2-yl)(methyl)amino)pyrimidin-2-ylamino)propyl)phenyl)methanol]"
13,≥ 4.70,"CN(c1cccc(-c2ccccc2)n1)c1ccnc(N[C@H]2CC[C@H](N)CC2)n1 [Example 153, N^2-((1s,4s)-4-aminocyclohexyl)-N^4-methyl-N^4-(6-phenylpyridin-2-yl)pyrimidine-2,4-diamine]"
14,≥ 4.70,"COc1ccc(-c2cccc(N(C)c3ccnc(NCCc4ccccc4)n3)n2)cc1 [Example 140, N^4-(6-(4-Methoxyphenyl)pyridin-2-yl)-N^4-methyl-N^2-phenethylpyrimidine-2,4-diamine]"
15,≥ 4.70,Cc1nccn1-c1nccc(N(C)c2ccnc(-c3ccccc3)n2)n1 [N-methyl-N-(2-(2-methyl-1H-imidazol-1-yl)pyrimidin-4-yl)-2-phenylpyrimidin-4-amine]
16,≥ 4.70,"CN(c1ccnc(NC(C)(C)CNC(=O)OC(C)(C)C)n1)c1cc(-c2ccccc2)cc(=O)n1C [Example 161, tert-Butyl 2-methyl-2-(4-(methyl(1-methyl-6-oxo-4-phenyl-1,6-dihydropyridin-2-yl)amino)pyrimidin-2-ylamino)propylcarbamate]"
17,≥ 4.70,"CNC(=O)c1cnc(-c2ccccc2)nc1Nc1ccnc(NCCc2cccnc2)n1 [Example 101, N-Methyl-2-phenyl-4-(2-(2-(pyridin-3-yl)ethylamino)pyrimidin-4-ylamino)-pyrimidine-5-carboxamide]"

# The next lines start with the compound.
row,Structure (SMILES),pIC50
1,CN(c1ccnc(N[C@@H](CO)Cc2ccccc2)n1)c1ccnc(-c2ccccc2)n1 [(2R)-2-((4-(methyl(2-phenyl-4-pyrimidinyl)amino)-2-pyrimidinyl)amino)-3-phenyl-1-propanol],≥ 4.70
2,"C[C@@H](Cc1cc(C#N)ccc1Cl)Nc1nccc(N(C)c2ccnc(-c3ccccc3)n2)n1 [Example 41, (S)-4-Chloro-3-(2-(4-(methyl(2-phenylpyrimidin-4-yl)amino)pyrimidin-2-ylamino)-propyl)benzonitrile]",≥ 4.70
3,"C[C@H](Nc1nccc(N(C)c2ccnc(-c3ccccc3)n2)n1)[C@@H]1CCC[C@H](CCN)C1 [Example 10, N^2-((S)-((1R,3S)-3-(2-Aminoethyl)cyclohexyl)ethyl)-N^4-methyl-N^4-(2-phenylpyrimidin-4-yl)pyrimidine-2,4-diamine]",≥ 4.70
4,"CN(c1ccnc(N[C@@H](CCNC2CC2)Cc2ccccc2)n1)c1ccnc(-c2ccccc2)n1 [Example 59, (R)-N^2-(4-(Cyclopropylamino)-1-phenylbutan-2-yl)-N^4-methyl-N^4-(2-phenyl-pyrimidin-4-yl)pyrimidine-2,4-diamine]",≥ 4.70
5,"C[C@@H](Cc1cc(CN)ccc1Cl)Nc1nccc(N(C)c2ccnc(-c3ccccc3)n2)n1 [Example 42, (S)-N^2-(1-(5-(Aminomethyl)-2-chlorophenyl)propan-2-yl)-N^4-methyl-N^4-(2-phenyl-pyrimidin-4-yl)pyrimidine-2,4-diamine]",≥ 4.70
6,"C[C@H](Nc1nccc(N(C)c2ccnc(-c3ccccc3)n2)n1)c1ccc(CCN)cc1 [Example 3, (S)-N^2-(1-(4-(2-Aminoethyl)phenyl)ethyl)-N^4-methyl-N^4-(2-phenylpyrimidin-4-yl)pyrimidine-2,4-diamine]",≥ 4.70
7,"CN(c1ccnc(NC(C)(C)CN)n1)c1ccnc(-c2ccccc2)n1 [Example 27, N^2-(1-Amino-2-methylpropan-2-yl)-N^4-methyl-N^4-(2-phenylpyrimidin-4-yl)-pyrimidine-2,4-diamine]",≥ 4.70
8,"Cc1cc(N(C)c2ccnc(-c3ccccc3)n2)nc(NC2CCC(N)CC2)n1 (stereo not drawn) [Example 33, N2-((1r,4r)-4-Aminocyclohexyl)-N4,6-dimethyl-N4-(2-phenylpyrimidin-4-yl)pyrimidine-2,4-diamine]",≥ 4.70
9,"C[C@H](NC(=O)OC(C)(C)C)c1cccc(CCNc2nccc(N(C)c3ccnc(-c4ccccc4)n3)n2)c1 [Example 20, (S)-tert-Butyl 1-(3-(2-(4-(methyl(2-phenylpyrimidin-4-yl)amino)pyrimidin-2-yl-amino)ethyl)phenyl)ethylcarbamate]",≥ 4.70
10,"CN(c1ccnc(NCCc2cccnc2)n1)c1ccnc(-c2cccc(F)c2F)n1 [Example 76, N^4-(2-(2,3-Difluorophenyl)pyrimidin-4-yl)-N^4-methyl-N^2-(2-(pyridin-3-yl)ethyl)-pyrimidine-2,4-diamine]",≥ 4.70
11,"C[C@@H](Cc1cccc(C(C)(C)N)c1)Nc1nccc(N(C)c2ccnc(-c3ccccc3)n2)n1 [Example 29, (S)-N^2-(1-(3-(2-Aminopropan-2-yl)phenyl)propan-2-yl)-N^4-methyl-N^4-(2-phenylpyrimidin-4-yl)pyrimidine-2,4-diamine]",≥ 4.70
12,"CN(c1ccnc(NCCc2cccnc2)n1)c1ccnc(-c2ccccc2)n1 [Example 15, N^4-Methyl-N^4-(2-phenylpyrimidin-4-yl)-N^2-(2-(pyridin-3-yl)ethyl)pyrimidine-2,4-diamine]",≥ 4.70
13,"CN(c1ccnc(N[C@@H](CCN)Cc2ccccc2)n1)c1ccnc(-c2ccccc2)n1 [Example 57, (R)-N^2-(4-Amino-1-phenylbutan-2-yl)-N^4-methyl-N^4-(2-phenylpyrimidin-4-yl)pyrimidine-2,4-diamine]",≥ 4.70
14,CC(C)[C@H](CC(=O)N1CCOCC1)Nc1nccc(N(C)c2ccnc(-c3ccccc3)n2)n1 [Example 61],≥ 4.70
15,CNC(=O)NCc1cccc(C[C@H](C)Nc2nccc(Nc3nc(-c4ccccc4)ncc3C(=O)NC)n2)c1 [(S)-1-(3-(2-(4-(5-(Methylcarbamoyl)-2-phenylpyrimidin-4-ylamino)pyrimidin-2-ylamino)propyl)benzyl)-3-methylurea],≥ 4.70
16,"CC(=O)N1CCC(Nc2nccc(N(C)c3ccnc(-c4ccccc4)n3)n2)CC1 [Example 22, 1-(4-(4-(Methyl(2-phenylpyrimidin-4-yl)amino)pyrimidin-2-ylamino)piperidin-1-yl)ethanone]",≥ 4.70
17,"C[C@@H](Cc1cccc(CN)c1)Nc1nccc(N(C)c2nc(-c3ccccc3F)ncc2F)n1 [Example 68, N^2-((S)-1-(3-(Aminomethyl)phenyl)propan-2-yl)-N^4-(5-fluoro-2-(2-fluorophenyl)-pyrimidin-4-yl)-N^4-methylpyrimidine-2,4-diamine]",≥ 4.70
18,"CN(c1ccnc(NC(C)(C)CNC(=O)OC(C)(C)C)n1)c1ccnc(-c2ccccc2)n1 [Example 26, tert-Butyl 2-methyl-2-(4-(methyl(2-phenylpyrimidin-4-yl)amino)pyrimidin-2-yl-amino)propylcarbamate]",≥ 4.70

# — patent US20060069110A1, “Substituted heterocyclic compounds and methods of use” (priority 2004, published 2006)
